Experimental data published in the supplement of paper PMC10307832.

What was measured:
Experiment in all cases: relative viability (nuclei count vs DMSO), 5 days (fraction); higher = more cells survive
[1] = compound: COc1cc2nccc(Oc3ccc(NC(=O)C4(C(=O)Nc5ccc(F)cc5)CC4)cc3)c2cc1OC [Cabozantinib] + O=C(CCCCCCC(=O)Nc1ccccc1)NO [Vorinostat] (partner 1 µM)
In short: (§1)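 Values are medians from duplicate plates. Each reflects relative viability, defined as the nuclei count of treated wells over that of vehicle wells. Lung cancer cell lines in 1536-well plates were pin-tool dosed one day after seeding with one drug alone or with a fixed anchor-drug dose plus five library-drug doses (not always all listed) in √10 steps, then fixed, stained and imaged at 4× after 5 days.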

[2] = compound: C1=CC(=CC=C1NC(=S)NNC2=C(C=C(C=C2[N+](=O)[O-])C(F)(F)F)[N+](=O)[O-])F [Kobe2602] + O=C(CCCCCCC(=O)Nc1ccccc1)NO [Vorinostat] (partner 1 µM)
In short: as §1

[3] = compound: C1=CC(=CC=C1NC(=S)NNC2=C(C=C(C=C2[N+](=O)[O-])C(F)(F)F)[N+](=O)[O-])F [Kobe2602] + CC1(C)CCC(c2ccc(Cl)cc2)=C(CN2CCN(c3ccc(C(=O)NS(=O)(=O)c4ccc(N[C@H](CCN5CCOCC5)CSc5ccccc5)c(S(=O)(=O)C(F)(F)F)c4)cc3)CC2)C1 [Navitoclax] (partner 0.5 µM)
In short: as §1

| Cell Line | relative viability ([1]; first compound 0.02 µM) | relative viability ([1]; first compound 0.06325 µM) | relative viability ([1]; first compound 0.2 µM) | relative viability ([1]; first compound 0.6325 µM) | relative viability ([1]; first compound 2 µM) | relative viability ([2]; first compound 0.2 µM) | relative viability ([2]; first compound 0.6325 µM) | relative viability ([2]; first compound 6.325 µM) | relative viability ([2]; first compound 20 µM) | relative viability ([3]; first compound 0.2 µM) | relative viability ([3]; first compound 0.6325 µM) | relative viability ([3]; first compound 2 µM) | relative viability ([3]; first compound 6.325 µM) | relative viability ([3]; first compound 20 µM) | relative viability ([2]; first compound 2 µM) |
| --- | --- | --- | --- | --- | --- | --- | --- | --- | --- | --- | --- | --- | --- | --- | --- |
| LCLC-97TM1 | 0.24 | 0.823 | 0.739 | 0.781 | 0.751 | 0.692 | 0.893 | 0.964 | 0.722 | 0.253 | 0.462 | 0.531 | 0.282 | 0.317 |  |
| LCLC-103H | 0.762 | 0.906 | 0.892 | 0.791 | 0.736 | 0.802 | 0.813 | 0.839 | 0.81 |  |  |  |  |  | 0.776 |
| LK-2 | 0.226 | 0.178 | 0.385 | 0.309 | 0.348 | 0.295 | 0.334 | 0.305 | 0.551 | 0.899 | 1.06 | 0.815 | 0.825 | 0.891 | 0.376 |
| LOU-NH91 | 0.851 | 0.973 | 0.822 | 0.853 | 0.914 | 0.886 | 1.02 | 0.905 | 0.863 | 0.702 | 0.816 | 0.644 | 0.697 | 0.68 | 0.837 |
| LU99A | 0.413 | 0.524 | 0.574 | 0.456 | 0.647 | 0.491 | 0.493 | 0.51 | 0.53 | 0.817 | 0.87 | 0.811 | 0.732 | 0.781 | 0.539 |
| LXF-289 | 0.755 | 0.765 | 0.659 | 0.738 | 0.756 | 0.677 | 0.776 | 0.659 | 0.775 | 0.95 | 0.959 | 0.873 | 0.941 | 0.923 | 0.75 |
| NCI-H23 |  | 0.794 | 0.553 | 0.631 | 0.551 | 0.616 | 0.645 | 0.544 | 0.729 | 0.744 | 0.741 | 0.97 | 0.679 | 0.993 | 0.628 |
| NCI-H322M | 0.897 | 1.1 | 0.894 | 0.894 | 0.917 | 0.958 | 1.03 | 0.849 | 0.921 | 1.28 | 1.31 | 1.25 | 1.26 | 0.631 | 0.851 |
| NCI-H358 | 0.683 | 0.905 | 0.556 | 0.623 | 0.534 | 0.706 | 0.733 | 0.719 | 0.689 |  |  |  |  |  | 0.586 |
| NCI-H441 | 0.782 | 0.922 | 0.882 | 0.794 | 0.845 | 0.756 | 0.711 | 0.646 | 0.697 | 0.602 | 0.807 | 0.601 | 0.575 | 0.679 | 0.808 |
| NCI-H460 | 0.893 | 0.818 | 0.68 | 0.635 | 0.741 |  | 0.702 | 0.724 | 0.68 | 1.12 | 1.16 | 1.19 | 1.1 | 1.06 | 0.705 |
| NCI-H520 | 0.719 | 0.64 | 0.715 | 0.598 | 0.688 | 0.702 | 0.775 | 0.691 | 0.731 | 0.99 | 1.08 | 1.03 | 1.07 | 0.988 | 0.637 |
| NCI-H522 | 0.737 | 1.01 | 1.03 | 0.902 | 0.902 | 0.949 | 1.05 | 1 | 0.898 |  |  |  |  |  | 0.964 |
| NCI-H596 | 0.628 | 0.812 | 0.677 | 1.5 | 0.6 | 0.591 | 0.726 | 0.659 | 0.68 | 0.908 | 1.05 | 0.949 | 0.962 | 0.992 | 0.63 |
| NCI-H647 | 0.621 | 0.734 | 0.696 | 0.43 | 0.496 | 0.613 | 0.582 | 0.583 | 0.601 | 1.16 | 1.1 | 1.06 | 1.04 | 1.13 | 0.64 |
| NCI-H650 | 0.412 | 0.489 | 0.458 | 0.721 | 0.414 | 0.466 | 0.411 | 0.499 | 0.434 |  |  |  |  |  | 0.421 |
| NCI-H661 | 0.783 | 0.856 | 0.879 | 0.809 | 0.935 | 0.777 | 0.799 | 0.825 | 0.827 |  |  |  |  |  | 0.753 |
| NCI-H727 | 0.935 | 1.36 | 1.23 | 1.28 | 1.22 | 1.18 | 1.31 |  | 1.55 | 0.392 | 0.431 | 0.356 | 0.389 | 0.456 | 1.06 |
| NCI-H838 | 0.744 | 0.765 | 0.713 | 0.665 | 0.667 | 0.68 | 0.767 | 0.703 | 0.683 | 1.17 | 1.22 | 1.12 | 1.13 | 1.17 | 0.654 |
| NCI-H1299 |  |  |  |  |  |  |  |  |  | 1.07 | 1.04 | 1.06 | 1.08 | 1.02 |  |
| NCI-H1355 | 0.659 | 0.754 | 0.6 | 0.635 | 0.625 | 0.589 | 0.687 | 0.588 | 0.622 | 0.887 | 0.94 | 0.945 | 0.901 | 0.902 | 0.577 |
| NCI-H1395 | 0.623 | 0.831 | 0.703 | 0.685 | 0.656 | 0.786 | 1.04 | 0.666 | 0.93 | 1.07 | 1.09 | 1.12 | 1.11 | 1.33 | 0.733 |
| NCI-H1648 | 0.425 | 0.589 |  | 0.55 | 0.408 | 0.464 | 0.441 | 0.334 | 0.338 |  |  |  |  |  | 0.351 |
| NCI-H1703 |  |  |  |  |  |  |  |  |  | 1.44 | 1.24 | 1.12 | 0.893 | 1.06 |  |
| NCI-H1792 |  |  |  |  |  |  |  |  |  | 0.67 | 0.626 | 0.604 | 0.609 | 0.695 |  |
| NCI-H2342 | 0.735 | 0.776 | 0.697 | 0.798 | 0.724 | 0.713 | 0.789 | 0.716 | 1.17 |  |  |  |  |  | 0.761 |
| SW 900 | 0.521 | 0.678 | 0.411 | 0.515 | 0.464 | 0.677 | 0.645 | 0.476 | 0.602 |  |  |  |  |  | 0.492 |
